Target: T1, cell-surface VLA-4 (α4β1 integrin) on Ramos cells binding to immobilized VCAM-1 (Homo sapiens, UniProt P05556+P13612)
T1 construct: Ramos cells bearing cell-surface VLA-4; endogenous in cells; host or cells: Ramos cells (VLA-4); VCAM-1 purified from CHO cell culture media
Assay: Ramos (VLA-4)/VCAM-1 Cell-Based Screening Assay (cell adhesion)
Settings: Calcein-AM labeled Ramos cells, VCAM-1 coated plates, 45 min at room temperature; read-out: IC50 in Ramos Cell Based Assay
Source text: Calcein-AM was purchased from Molecular Probes Inc.
VLA-4 (α4β1 integrin) antagonist activity, defined as ability to compete with cell-surface VLA-4 for binding to immobilized VCAM-1, was quantitated using a Ramos-VCAM-1 cell adhesion assay. Ramos cells bearing cell-surface VLA-4, were labeled with a fluorescent dye (Calcein-AM) and allowed to bind VCAM-1 in the presence or absence of test compounds.
Initially, this entailed coating 96 well plates (Nunc Maxisorp) with recombinant human VCAM-1 (100 ng in 100 μl PBS), sealing each plate and allowing the plates to stand at 4° C for Å18 hr. The VCAM-coated plates were subsequently washed twice with 0.05% Tween-20 in PBS, and then blocked for 1hr (room temperature) with 200 μl of Blocking Buffer (1% BSA/0.02% thimerosal) to reduce non-specific binding. Following the incubation with Blocking Buffer, plates were inverted, blotted and the remaining buffer aspirated. Each plate was then washed with 300 μl PBS, inverted and the remaining PBS aspirated.
Test compounds were dissolved in 100% DMSO and then diluted 1:25 in VCAM Cell Adhesion Assay Buffer (4 mM CaCl2, 4 mM MgCl2 in 50 mM TRIS-HCl, pH 7.5) (final DMSO=4%). […] 100 μl/well of each dilution was added to the VCAM-coated plates, followed by 100 μl of Ramos cells (200,000 cells/well in 1% BSA/PBS). […] Plates were inverted to remove non-adherent cells, blotted and 300 μl/well PBS added. Plates were again inverted, blotted and the remaining buffer gently aspirated. 100 μl Lysis Buffer (0.1% SDS in 50 mM TRIS-HCl, pH 8.5) was added to each well and agitated for 2 min on a rotary shaking platform.

T1 sequence (P13612 34-1032): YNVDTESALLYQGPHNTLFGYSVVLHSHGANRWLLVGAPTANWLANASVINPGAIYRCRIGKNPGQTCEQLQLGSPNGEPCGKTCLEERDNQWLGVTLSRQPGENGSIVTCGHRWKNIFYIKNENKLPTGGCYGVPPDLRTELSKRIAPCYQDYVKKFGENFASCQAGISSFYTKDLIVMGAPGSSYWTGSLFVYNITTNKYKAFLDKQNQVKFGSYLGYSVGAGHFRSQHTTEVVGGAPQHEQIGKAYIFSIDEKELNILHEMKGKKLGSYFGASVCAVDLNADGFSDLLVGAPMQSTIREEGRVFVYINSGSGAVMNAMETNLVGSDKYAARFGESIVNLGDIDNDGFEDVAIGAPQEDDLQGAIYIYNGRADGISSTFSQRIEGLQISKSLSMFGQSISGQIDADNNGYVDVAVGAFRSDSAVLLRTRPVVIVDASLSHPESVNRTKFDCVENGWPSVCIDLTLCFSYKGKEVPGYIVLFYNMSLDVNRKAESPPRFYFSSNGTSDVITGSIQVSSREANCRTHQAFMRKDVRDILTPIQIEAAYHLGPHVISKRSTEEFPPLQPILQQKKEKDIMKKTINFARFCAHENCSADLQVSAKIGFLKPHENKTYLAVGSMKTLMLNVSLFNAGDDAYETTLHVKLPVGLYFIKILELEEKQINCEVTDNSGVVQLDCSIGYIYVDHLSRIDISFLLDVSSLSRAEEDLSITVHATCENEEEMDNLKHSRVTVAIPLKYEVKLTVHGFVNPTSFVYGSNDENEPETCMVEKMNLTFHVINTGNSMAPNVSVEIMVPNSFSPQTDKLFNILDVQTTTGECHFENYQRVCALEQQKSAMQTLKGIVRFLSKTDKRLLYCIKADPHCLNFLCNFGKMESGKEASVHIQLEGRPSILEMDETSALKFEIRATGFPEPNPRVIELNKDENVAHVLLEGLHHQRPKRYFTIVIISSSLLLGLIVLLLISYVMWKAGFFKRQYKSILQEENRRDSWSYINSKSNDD
T1 sequence (P05556 21-798): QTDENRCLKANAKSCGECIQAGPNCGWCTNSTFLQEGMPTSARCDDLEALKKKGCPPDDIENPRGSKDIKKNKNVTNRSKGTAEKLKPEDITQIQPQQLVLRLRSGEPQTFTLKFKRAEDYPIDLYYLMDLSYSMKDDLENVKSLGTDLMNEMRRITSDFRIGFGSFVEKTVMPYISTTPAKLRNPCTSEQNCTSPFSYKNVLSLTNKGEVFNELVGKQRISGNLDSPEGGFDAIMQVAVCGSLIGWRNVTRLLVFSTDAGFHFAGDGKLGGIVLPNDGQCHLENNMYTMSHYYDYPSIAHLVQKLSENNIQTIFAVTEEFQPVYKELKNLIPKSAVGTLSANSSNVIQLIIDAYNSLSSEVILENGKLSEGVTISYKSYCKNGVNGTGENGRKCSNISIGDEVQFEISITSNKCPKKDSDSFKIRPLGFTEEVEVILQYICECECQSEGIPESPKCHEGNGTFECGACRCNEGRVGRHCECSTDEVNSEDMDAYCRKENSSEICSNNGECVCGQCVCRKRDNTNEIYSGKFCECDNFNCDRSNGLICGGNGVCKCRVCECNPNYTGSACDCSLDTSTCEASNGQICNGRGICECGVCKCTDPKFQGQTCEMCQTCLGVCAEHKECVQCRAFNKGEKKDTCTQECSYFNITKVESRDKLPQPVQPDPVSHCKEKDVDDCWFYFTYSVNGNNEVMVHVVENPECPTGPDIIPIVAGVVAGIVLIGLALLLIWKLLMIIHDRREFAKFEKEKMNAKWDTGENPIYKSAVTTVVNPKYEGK

| Structure (SMILES) | IC50 [nM] |
| --- | --- |
| COCCC1(C(=O)N[C@@H](Cc2ccc(NC(=O)c3c(Cl)cccc3Cl)cc2)C(=O)O)CCCC1 [Example 59] | 13.5 |
| CC(=O)NCCC1(C(=O)N[C@@H](Cc2ccc(N3C(=O)[C@@H](Cc4cccnc4)N(C(C)=O)C3c3ccccc3)cc2)C(=O)O)CCCC1 (single isomer, unassigned) [Example 299] | 1.7 |
| CS(=O)(=O)CCCCC1(C(=O)N[C@@H](Cc2ccc(NC(=O)c3c(Cl)cccc3Cl)cc2)C(=O)O)CCCC1 [Example 263] | 5 |
| CCCC(=O)N1C(c2ccc(Cl)cc2)N(c2ccc(C[C@H](NC(=O)C3(CCNC(C)=O)CCCC3)C(=O)O)cc2)C(=O)[C@H]1C (single isomer, unassigned) [Example 351] | 13 |
| O=C(NCCC1(C(=O)N[C@@H](Cc2ccc(NC(=O)c3c(Cl)cccc3Cl)cc2)C(=O)O)CCCC1)Nc1ccccc1[N+](=O)[O-] [Example 190] | 650 |
| CCCC(=O)N1C(c2ccccc2)N(c2ccc(C[C@H](NC(=O)C3(CCNC(C)=O)CCCC3)C(=O)O)cc2)C(=O)[C@H]1C (single isomer, unassigned) [Example 344] | 19 |
| COc1ccc(C[C@@H]2C(=O)N(c3ccc(C[C@H](NC(=O)C4(CCNC(C)=O)CCCC4)C(=O)O)cc3)C(c3ccccc3)N2C(=O)COc2ccccc2)cc1 (single isomer, unassigned) [Example 284] | 2.9 |
| CCCC(=O)N1C(c2ccc(Cl)cc2)N(c2ccc(C[C@H](NC(=O)C3(CCNC(C)=O)CCCC3)C(=O)O)cc2)C(=O)[C@H]1Cc1ccccc1 (single isomer, unassigned) [Example 322] | 5 |
| [N-]=[N+]=NCCCCC1(C(=O)N[C@@H](Cc2ccc(NC(=O)c3c(Cl)cccc3Cl)cc2)C(=O)O)CCCC1 [Example 261] | 184 |
| CC(=O)NCCC1(C(=O)N[C@@H](Cc2ccc(N3C(=O)[C@@H](Cc4ccccc4)N(C(C)=O)C3c3ccccc3)cc2)C(=O)O)CCCC1 (single isomer, unassigned) [Example 311] | 3 |
| O=C(NCCC1(C(=O)N[C@@H](Cc2ccc(NC(=O)c3c(Cl)cccc3Cl)cc2)C(=O)O)CCCC1)NCc1ccccc1 [Example 191] | 322 |
| CCCC(=O)N1C(c2ccccc2)N(c2ccc(C[C@H](NC(=O)C3(CCNC(C)=O)CCCC3)C(=O)O)cc2)C(=O)[C@H]1Cc1ccc(OC)cc1 (single isomer, unassigned) [Example 280] | 4.2 |
| COc1ccc(C[C@@H]2C(=O)N(c3ccc(C[C@H](NC(=O)C4(CCNC(C)=O)CCCC4)C(=O)O)cc3)C(CCc3ccccc3)N2C(C)=O)cc1 (single isomer, unassigned) [Example 293] | 40 |
| CC(=O)NCCC1(C(=O)N[C@@H](Cc2ccc(N3C(=O)[C@@H](C)N(C(C)=O)C3c3ccc(Cl)cc3)cc2)C(=O)O)CCCC1 (mixture of isomers) [Example 350] | 13 |
| CSCCCCC1(C(=O)N[C@@H](Cc2ccc(NC(=O)c3c(Cl)cccc3Cl)cc2)C(=O)O)CCCC1 [Example 260] | 130 |
| COc1ccc(C[C@@H]2C(=O)N(c3ccc(C[C@H](NC(=O)C4(CCNC(C)=O)CCCC4)C(=O)O)cc3)C(c3ccccc3)N2C(C)=O)cc1 (single isomer, unassigned) [Example 278] | 2 |
| CC(=O)NCCCC1(C(=O)N[C@@H](Cc2ccc(NC(=O)c3c(Cl)cccc3Cl)cc2)C(=O)O)CCCC1 [Example 276, N-[[1-(3-(Acetylamino)propyl]cyclopenyl]carbonyl]-4-[[(2,6-dichlorophenyl)carbonyl]amino]-L-phenylalanine] | 22 |
| COc1ccc(C[C@@H]2C(=O)N(c3ccc(C[C@H](NC(=O)C4(CCNC(C)=O)CCCC4)C(=O)O)cc3)C(c3ccc(Cl)cc3)N2C(C)=O)cc1 (single isomer, unassigned) [Example 286] | 24 |

Same assay, conditions: Conc. 10 nM; Ramos cell adhesion to VCAM-1

| Structure (SMILES) | inhibition at 0.01 µM [%] |
| --- | --- |
| CCCC(=O)N1C(Cc2ccccc2)C(=O)N(c2ccc(CC(NC(=O)C3(CCNC(C)=O)CCCC3)C(=O)O)cc2)C1c1ccc(Cl)cc1 (single isomer, unassigned) [Example 321] | 59 |
| CCCC(=O)N1C(Cc2ccccc2)C(=O)N(c2ccc(CC(NC(=O)C3(CCNC(C)=O)CCCC3)C(=O)O)cc2)C1c1ccccc1 (single isomer, unassigned) [Example 313] | 68 |
| CCCC(=O)N1C(Cc2cccnc2)C(=O)N(c2ccc(CC(NC(=O)C3(CCNC(C)=O)CCCC3)C(=O)O)cc2)C1c1ccccc1 (stereo not shown) [Example 300] | 32 |
| CC(=O)NCCC1(C(=O)NC(Cc2ccc(N3C(=O)C(C)N(C(C)=O)C3c3ccccc3)cc2)C(=O)O)CCCC1 (single isomer, unassigned) [Example 342] | 24 |
| CC(=O)NCCC1(C(=O)NC(Cc2ccc(N3C(=O)C(Cc4ccccc4)N(C(=O)COc4ccccc4)C3c3ccccc3)cc2)C(=O)O)CCCC1 (single isomer, unassigned) [Example 317] | 17 |
| CC(=O)NCCC1(C(=O)NC(Cc2ccc(N3C(=O)C(C)N(C(=O)COc4ccccc4)C3c3ccccc3)cc2)C(=O)O)CCCC1 (single isomer, unassigned) [Example 349] | 58 |
| COc1ccc(CC2C(=O)N(c3ccc(CC(NC(=O)C4(CCNC(C)=O)CCCC4)C(=O)O)cc3)C(c3ccc(Cl)cc3)N2C(=O)COc2ccccc2)cc1 (single isomer, unassigned) [Example 291] | 48 |
| CCCC(=O)N1C(Cc2ccc(OC)cc2)C(=O)N(c2ccc(CC(NC(=O)C3(CCNC(C)=O)CCCC3)C(=O)O)cc2)C1c1ccc(Cl)cc1 (single isomer, unassigned) [Example 288] | 92 |
| CCCC(=O)N1C(Cc2cccnc2)C(=O)N(c2ccc(CC(NC(=O)C3(CCNC(C)=O)CCCC3)C(=O)O)cc2)C1c1ccc(Cl)cc1 (stereo not shown) [Example 304] | 35 |
| CC(=O)NCCC1(C(=O)NC(Cc2ccc(N3C(=O)C(Cc4cccnc4)N(C(C)=O)C3c3ccc(Cl)cc3)cc2)C(=O)O)CCCC1 (stereo not shown) [Example 303] | 70 |

Same assay, conditions: IC50 in Ramos Cell Based Assay (nM), Calcein-AM labeled Ramos cells, VCAM-1 coated plates, 45 min at room temperature

| Structure (SMILES) | IC50 [nM] |
| --- | --- |
| N#CCCCCC1(C(=O)N[C@@H](Cc2ccc(NC(=O)c3c(Cl)cccc3Cl)cc2)C(=O)O)CCCC1 [Example 262] | 39 |
| CSCCCCC1(C(=O)N[C@@H](Cc2ccc(NC(=O)c3c(Cl)cccc3Cl)cc2)C(=O)O)CCCC1 [Example 260] | 94 |
| NC(=O)NCCC1(C(=O)N[C@@H](Cc2ccc(NC(=O)c3c(Cl)cccc3Cl)cc2)C(=O)O)CCCC1 [Example 188] | 36 |

From US6455550B1, “N-alkanoylphenylalanine derivatives” (Hoffmann-La Roche Inc., priority 1997, dated 2002)
